Laboratory results: US8759318B2, “Phosphoramidate derivatives of guanosine nucleoside compounds for treatment of viral infections” (Inhibitex, Inc., priority 2009, dated 2014)

Assays:
in vitro = conditions: human
[1] = tested on: HCV replicon (Genotype 1b); assay: Luciferase genotype 1b replicon potency assay; conditions: Hepatitis C virus, GETYPE1B, read-out: IC50 μM, HCV genotype 1b luciferase replicon, Renilla luciferase reporter

Row | Structure (SMILES) | CC50 (in vitro) | IC50 [1]
1 | COc1nc(N)nc2c1ncn2C1O[C@H](COP(=O)(N[C@@H](C)C(=O)OCC(C)(C)C)Oc2ccccc2)[C@@H](O)[C@@]1(C)O (stereo partly drawn) [Example 35, (2S)-neopentyl 2-((((2R,3R,4R)-5-(2-amino-6-methoxy-9H-purin-9-yl)-3,4-dihydroxy-4-methyltetrahydrofuran-2-yl)methoxy)(phenoxy)phosphorylamino)propanoate] | 38000 nM | 0.049 µM
2 | COc1nc(N)nc2c1ncn2C1O[C@H](COP(=O)(N[C@H](C(=O)OCc2ccc(F)cc2F)C(C)C)Oc2cccc3ccccc23)[C@@H](O)[C@@]1(C)O (stereo partly drawn) [Example 37] | 16000 nM | 0.043 µM
3 | COc1nc(N)nc2c1ncn2C1O[C@H](COP(=O)(N[C@H](C(=O)O[C@@H](C)c2ccc(Br)cc2)C(C)C)Oc2cccc3ccccc23)[C@@H](O)[C@@]1(C)O (stereo partly drawn) [Example 39, (2S)-((S)-1-(4-bromophenyl)ethyl) 2-((((2R,3R,4R)-5-(2-amino-6-methoxy-9H-purin-9-yl)-3,4-dihydroxy-4-methyltetrahydrofuran-2-yl)methoxy)(naphthalen-1-yloxy)phosphorylamino)-3-methylbutanoate] | 900 nM | 2.2 µM
4 | COc1nc(N)nc2c1ncn2C1O[C@H](COP(=O)(N[C@H](C(=O)O[C@@H](C)c2ccccc2Br)C(C)C)Oc2cccc3ccccc23)[C@@H](O)[C@@]1(C)O (stereo partly drawn) [Example 40, (2S)-((S)-1-(2-bromophenyl)ethyl) 2-((((2R,3R,4R)-5-(2-amino-6-methoxy-9H-purin-9-yl)-3,4-dihydroxy-4-methyltetrahydrofuran-2-yl)methoxy)(naphthalen-1-yloxy)phosphorylamino)-3-methylbutanoate] | 44000 nM | 2.9 µM
5 | COC(=O)[C@@H](NP(=O)(OC[C@H]1OC(n2cnc3c(OC)nc(N)nc32)[C@](C)(O)[C@@H]1O)Oc1cccc2ccccc12)C(C)C (stereo partly drawn) [Example 41, (2S)-methyl 2-((((2R,3R,4R)-5-(2-amino-6-methoxy-9H-purin-9-yl)-3,4-dihydroxy-4-methyltetrahydrofuran-2-yl)methoxy)(naphthalen-1-yloxy)phosphorylamino)-3-methylbutanoate] | 22000 nM | 0.38 µM
6 | COc1nc(N)nc2c1ncn2C1O[C@H](COP(=O)(N[C@H](C(=O)OCC2CC2)C(C)C)Oc2cccc3ccccc23)[C@@H](O)[C@@]1(C)O (stereo partly drawn) [Example 43, (2S)-cyclopropylmethyl 2-((((2R,3R,4R)-5-(2-amino-6-methoxy-9H-purin-9-yl)-3,4-dihydroxy-4-methyltetrahydrofuran-2-yl)methoxy) (naphthalen-1-yloxy)phosphorylamino)-3-methylbutanoate] | 6000 nM | 0.18 µM
7 | COc1nc(N)nc2c1ncn2C1O[C@H](COP(=O)(N[C@H](C(=O)OC2CCC2)C(C)C)Oc2cccc3ccccc23)[C@@H](O)[C@@]1(C)O (stereo partly drawn) [Example 44, (2S)-cyclobutyl 2-((((2R,3R,4R)-5-(2-amino-6-methoxy-9H-purin-9-yl)-3,4-dihydroxy-4-methyltetrahydrofuran-2-yl)methoxy)(naphthalen-1-yloxy)phosphorylamino)-3-methylbutanoate] | 64000 nM | 0.39 µM
8 | COc1nc(N)nc2c1ncn2C1O[C@H](COP(=O)(N[C@H](C(=O)OC2CCCC2)C(C)C)Oc2cccc3ccccc23)[C@@H](O)[C@@]1(C)O (stereo partly drawn) [Example 45] | 56000 nM | 0.33 µM
9 | COc1nc(N)nc2c1ncn2C1O[C@H](COP(=O)(N[C@H](C(=O)OC2CCCCC2)C(C)C)Oc2cccc3ccccc23)[C@@H](O)[C@@]1(C)O (stereo partly drawn) [Example 46] | 24000 nM | 0.42 µM
10 | COC(=O)[C@@H](C)c1ccc2cc(OP(=O)(N[C@H](C(=O)OCC(C)(C)C)C(C)C)OC[C@H]3OC(n4cnc5c(OC)nc(N)nc54)[C@](C)(O)[C@@H]3O)ccc2c1 (stereo partly drawn) [Example 48, (2S)-neopentyl 2-((((2R,3R,4R)-5-(2-amino-6-methoxy-9H-purin-9-yl)-3,4-dihydroxy-4-methyltetrahydrofuran-2-yl)methoxy) (6-((S)-1-methoxy-1-oxopropan-2-yl)naphthalen-2-yloxy)phosphorylamino)-3-methylbutanoate] | 29000 nM | 0.21 µM
11 | COc1nc(N)nc2c1ncn2C1O[C@H](COP(=O)(N[C@H](C(=O)OCc2ccc(F)cc2F)C(C)C)Oc2cccc3ncccc23)[C@@H](O)[C@@]1(C)O (stereo partly drawn) [Example 49, (2S)-2,4-difluorobenzyl 2-((((2R,3R,4R)-5-(2-amino-6-methoxy-9H-purin-9-yl)-3,4-dihydroxy-4-methyltetrahydrofuran-2-yl)methoxy)(quinolin-5-yloxy)phosphorylamino)-3-methylbutanoate] | > 100000 nM | 0.17 µM
12 | COc1nc(N)nc2c1ncn2C1O[C@H](COP(=O)(N[C@H](C(=O)OCC(C)(C)C)C(C)C)Oc2cccc3ncccc23)[C@@H](O)[C@@]1(C)O (stereo partly drawn) [Example 50, (2S)-neopentyl 2-((((2R,3R,4R)-5-(2-amino-6-methoxy-9H-purin-9-yl)-3,4-dihydroxy-4-methyltetrahydrofuran-2-yl)methoxy)(quinolin-5-yloxy)phosphorylamino)-3-methylbutanoate] | > 100000 nM | 0.55 µM
13 | COc1nc(N)nc2c1ncn2C1O[C@H](COP(=O)(N[C@H](C(=O)OCc2ccc(F)cc2F)C(C)C)Oc2ccc3ncccc3c2)[C@@H](O)[C@@]1(C)O (stereo partly drawn) [Example 51, (2S)-2,4-difluorobenzyl 2-((((2R,3R,4R)-5-(2-amino-6-methoxy-9H-purin-9-yl)-3,4-dihydroxy-4-methyltetrahydrofuran-2-yl)methoxy)(quinolin-6-yloxy)phosphorylamino)-3-methylbutanoate] | > 100000 nM | 0.11 µM
14 | COc1nc(N)nc2c1ncn2C1O[C@H](COP(=O)(N[C@H](C(=O)OCC(C)(C)C)C(C)C)Oc2ccc3ncccc3c2)[C@@H](O)[C@@]1(C)O (stereo partly drawn) [Example 52, (2S)-neopentyl 2-((((2R,3R,4R)-5-(2-amino-6-methoxy-9H-purin-9-yl)-3,4-dihydroxy-4-methyltetrahydrofuran-2-yl)methoxy)(quinolin-6-yloxy)phosphorylamino)-3-methylbutanoate] | > 100000 nM | 0.19 µM
15 | COc1nc(N)nc2c1ncn2C1O[C@H](COP(=O)(N[C@H](C(=O)OCC(C)(C)C)C(C)C)Oc2cccc3cccnc23)[C@@H](O)[C@@]1(C)O (stereo partly drawn) [Example 53, (2S)-neopentyl 2-((((2R,3R,4R)-5-(2-amino-6-methoxy-9H-purin-9-yl)-3,4-dihydroxy-4-methyltetrahydrofuran-2-yl)methoxy)(quinolin-8-yloxy)phosphorylamino)-3-methylbutanoate] | > 100000 nM | 0.88 µM
16 | COc1nc(N)nc2c1ncn2C1O[C@H](COP(=O)(N[C@H](C(=O)OCC(C)(C)C)C(C)C)Oc2cc(C(C)(C)C)cc3ccccc23)[C@@H](O)[C@@]1(C)O (stereo partly drawn) [Example 55] | 13000 nM | 2.1 µM
17 | COc1nc(N)nc2c1ncn2C1O[C@H](COP(=O)(N[C@H](C(=O)OCC(C)(C)C)C(C)C)Oc2cc(C(C)(C)C)cc3ccc(C(C)(C)C)cc23)[C@@H](O)[C@@]1(C)O (stereo partly drawn) [Example 56] | 13000 nM | 2.1 µM
18 | COc1nc(N)nc2c1ncn2C1O[C@H](COP(=O)(N[C@H](C)C(=O)OCC(C)(C)C)Oc2cccc3ccccc23)[C@@H](O)[C@@]1(C)O (stereo partly drawn) [Example 57] | 51000 nM | 0.24 µM
19 | COc1nc(N)nc2c1ncn2C1O[C@H](COP(=O)(N[C@@H](CCSC)C(=O)O[C@@H](C)c2ccccc2)Oc2cccc3ccccc23)[C@@H](O)[C@@]1(C)O (stereo partly drawn) [Example 59, (2S)-((S)-1-phenylethyl) 2-((((2R,3R,4R)-5-(2-amino-6-methoxy-9H-purin-9-yl)-3,4-dihydroxy-4-methyltetrahydrofuran-2-yl)methoxy)(naphthalen-1-yloxy)phosphorylamino)-4-(methylthio)butanoate] | 30000 nM | 0.32 µM
20 | COc1nc(N)nc2c1ncn2C1O[C@H](COP(=O)(N[C@@H](CCSC)C(=O)OCC(C)(C)C)Oc2cccc3ccccc23)[C@@H](O)[C@@]1(C)O (stereo partly drawn) [Example 60] | 28000 nM | 0.06 µM
21 | COc1nc(N)nc2c1ncn2[C@@H]1O[C@H](COP(=O)(N[C@@H](CC(C)C)C(=O)OCC(C)(C)C)Oc2cccc3ccccc23)[C@@H](O)[C@@]1(C)O (stereo partly drawn) [Example 61] | 14000 nM | 0.071 µM
22 | CCC(C)[C@H](NP(=O)(OC[C@H]1OC(n2cnc3c(OC)nc(N)nc32)[C@](C)(O)[C@@H]1O)Oc1cccc2ccccc12)C(=O)OCC(C)(C)C (stereo partly drawn) [Example 62] | 18000 nM | 0.86 µM
23 | COc1nc(N)nc2c1ncn2C1O[C@H](COP(=O)(N[C@H](C(=O)OCc2ccccc2)c2ccccc2)Oc2cccc3ccccc23)[C@@H](O)[C@@]1(C)O (stereo partly drawn) [Example 63] | 50000 nM | 0.028 µM
24 | COC(=O)[C@@H](NP(=O)(OC[C@H]1OC(n2cnc3c(OC)nc(N)nc32)[C@](C)(O)[C@@H]1O)Oc1cccc2ccccc12)c1ccccc1 (stereo partly drawn) [Example 64] | > 100000 nM | 0.49 µM
25 | COc1nc(N)nc2c1ncn2C1O[C@H](COP(=O)(N[C@H](C(=O)OCC(C)(C)C)c2ccccc2)Oc2cccc3ccccc23)[C@@H](O)[C@@]1(C)O (stereo partly drawn) [Example 66] | 19000 nM | 0.032 µM
26 | COc1nc(N)nc2c1ncn2C1O[C@H](COP(=O)(N[C@H](C(=O)OC2CCCCC2)c2ccccc2)Oc2cccc3ccccc23)[C@@H](O)[C@@]1(C)O (stereo partly drawn) [Example 67, (2S)-cyclohexyl 2-((((2R,3R,4R)-5-(2-amino-6-methoxy-9H-purin-9-yl)-3,4-dihydroxy-4-methyltetrahydrofuran-2-yl)methoxy)(naphthalen-1-yloxy)phosphorylamino)-2-phenylacetate] | 22000 nM | 0.054 µM
27 | COc1nc(N)nc2c1ncn2C1O[C@H](COP(=O)(N[C@@H](C(=O)OCC(C)(C)C)c2ccccc2)Oc2cccc3ccccc23)[C@@H](O)[C@@]1(C)O (stereo partly drawn) [Example 70, (2R)-neopentyl 2-((((2R,3R,4R)-5-(2-amino-6-methoxy-9H-purin-9-yl)-3,4-dihydroxy-4-methyltetrahydrofuran-2-yl)methoxy)(naphthalen-1-yloxy)phosphorylamino)-2-phenylacetate] | 38000 nM | 0.077 µM
